Measurements from BindingDB's records for doi:10.1016/j.bmc.2008.07.062 (Astellas Pharma, 2008).

Columns and labels:
[1] = Antagonist activity at human CCR4 receptor assessed as inhibition of CCL22-induced chemotaxis by bioluminescent assay
[2] = Antagonist activity at mouse CCR4 receptor assessed as inhibition of CCL22-induced chemotaxis by bioluminescent assay

| IC50 [1] | IC50 [2] | Structure (SMILES) |
| --- | --- | --- |
| 360 nM | – | COc1cc2nc(N3CCC(N(C)CCCCO)CC3)nc(Nc3ccc(Cl)cc3)c2cc1OC [4-[(1-{4-[(4-Chlorophenyl)amino]-6,7-dimethoxyquinazolin-2-yl}piperidin-4-yl)(methyl)amino]butan-1-ol] |
| 320 nM | 710 nM | COc1cc2nc(N3CCC(N4CCCC4)CC3)nc(Nc3ccc(F)cc3)c2cc1OC [N-(4-Fluorophenyl)-6,7-dimethoxy-2-(4-pyrrolidin-1-ylpiperidin-1-yl)quinazolin-4-amine] |
| 69 nM | 820 nM | COc1cc2nc(N3CCC(N4CCCC4)CC3)nc(Nc3ccc(F)c(F)c3)c2cc1OC [N-(3,4-Difluorophenyl)-6,7-dimethoxy-2-(4-pyrrolidin-1-ylpiperidin-1-yl)quinazolin-4-amine] |
| 280 nM | – | COc1cc2nc(N3CCC(N(C)CCCO)CC3)nc(Nc3ccc(Cl)cc3)c2cc1OC [3-[(1-{4-[(4-Chlorophenyl)amino]-6,7-dimethoxyquinazolin-2-yl}piperidin-4-yl)(methyl)amino]propan-1-ol] |
